Data set [1] addresses α7 receptor binding sites (Rattus norvegicus, UniProt Q05941). In kind it is in vivo. The note with it: sc, 2-4 h.
The test system of data set [2] is dog Purkinje fibre. Nature of the data set: Dog isolated cardiac Purkinje fibres, action potentials. The note with it: stimulation 0.5 and 1 Hz. On the procedure: Effects of AZD0328 on cardiac action potentials were assessed in 4 dog Purkinje fibre preparations. (Table 3). The following action potential parameters were measured at the stimulation frequencies 0.5 and 1 Hz: action potential duration at 50% (APD50), 70% (APD70) and 90% (APD90) of repolarisation; the maximum velocity of the action potential upstroke (Vmax); the action potential amplitude (APA) and the resting membrane potential (RMP). At both stimulation frequencies, AZD0328 caused a concentration-dependent prolongation of APD50, APD70 and APD90, with significant effects at 5.6 μM and above. There was also an indication of proarrhythmic potential of the compound. A 10% increase in APD90 in the isolated dog Purkinje fibre is seen at concentrations between 5.6 and 16.8 μm.

Data set [3] relates to isolated perfused female rabbit hearts. The data set is described as follows: Isolated perfused rabbit heart (Hondeghem model). An excerpt:
Proarrhythmic properties of AZD0328 were investigated in 6 isolated perfused female rabbit hearts according to the Hondeghem model (Table 3). Effects of AZD0328 on action potential duration at 60% of repolarisation (APD60), and Triangulation, Reverse-use dependence and Instability (T, R, I) of the action potential, were studied. Also, a “flag” was raised when T, R or I reached a critical threshold level, below which is considered safe, and the total number of flags was presented as increase in percentage flags. The % flags parameter is considered to be the most sensitive measure of proarrhythmia in this in vitro model, with a threshold for cause of concern at 2.5%. The % flags increased concentration-dependently above threshold at 9 and 30 μM. Although TRIad elements were present, there were no overt signs of proarrhythmia such as early-afterdepolarisations (EADs), Torsade de Pointes, or ventricular fibrillation. In this study the no adverse effect level (NOAEL) of AZD0328 for proarrhythmic signals was 3 μm.

In data set [4] the test system is rats. The data set is described as follows: Nicotine drug discrimination. The note with it: Wistar, rat, in vivo, sc. How it is done:
AZD0328 was tested for its potential to produce nicotine-like stimulus effects after subcutaneous administration in a drug-discrimination procedure (Table 3).

A short description of data set [5]: Cardiovascular/respiratory telemetry and whole body plethysmography. The note with it: plasma; rat, oral, whole-body plethysmography; read-out: NOAEL on ventilatory function / respiration, total Cmax. Format: in vivo, rat. How it is done: (§1) Effects of single oral doses of AZD0328 on mean, systolic and diastolic arterial blood pressures, heart rate, body temperature, locomotor activity and respiratory parameters were evaluated in rats by combining whole body plethysmography with telemetry (Table 3). […] The degree of hypertension, however, was similar at the 3 highest doses, which partly can be explained by the high individual variation in plasma exposure at each dose level. The effect on heart rate was, on the other hand, dose-related.
(§2) Effects of AZD0328 on respiratory function were evaluated in the combined cardiovascular/respiratory study in rats (Table 3). Respiratory rate, tidal volume, inspiratory and expiratory times, and peak inspiratory and expiratory flows were measured […].

For data set [6], the system named is rats. The data set is described as above. Format: in vivo, rat. How it is done: as §1, §2
In data set [7] the test system is ferrets. The data set is described as follows: Emetic potential. In kind it is in vivo. The note with it: ferret. How it is done: The emetic potential of AZD0328 was investigated in ferrets (n=6-8/dose) following a single oral dose of vehicle or AZD0328 (Table 3). Videotape recordings were used for observation of the animals up to 4 h after dose for quantitation and timing of emetic behaviours, characterised as retches (abdominal contractions), vomits and wet-dog shakes.

The nature of data set [8]: [14C]-AZD0328 QWBA / mass balance. Format: in vivo, rat. How it is done:
In the mass balance study conducted in fed rats, a Tmax of 0.5 h to 1 h was observed following single and multiple oral doses (solution). The bioavailability of AZD0328 (total radioactivity) in this study was >90%. […] Generally speaking, the elimination was complete within the 24-hour interval at the dose levels tested.
AZD0328 is a low protein binding molecule across species including human (<15%) across the concentration range 21.6 to 21,630 ng/mL (0.1 to 100 μM). In most species, the binding was concentration and gender independent. […] [^14C]-AZD0328-derived radioactivity was rapidly distributed to the organs and tissues with high levels of radioactivity associated with the contents of the GI tract and the major excretion organs, including kidney and liver. The radioactivity declined rapidly and by 168 h postdose radioactivity levels were not detectable in most tissues, with the exception of a few ocular tissues and nasal turbinates. […] Notable association of [^14C]-AZD0328-related radioactivity with the melanin-containing tissues was observed, with measurable radioactivity still present in the ocular tissue at 216 h postdate. [^14C]-AZD0328-derived radioactivity crossed the placenta.
Pharmacokinetics and mass balance of [^14C]-AZD0328 were investigated in rats. The excretion of [^14C]-AZD0328-derived radioactivity in rats was mainly through the kidney. Over the course of the study, radioactivity recovered in urine and feces accounted for approximately 85% and 8%, respectively.

Data set [9] has as its system Mouse lymphoma test. The data set is described as follows: Mouse lymphoma test. Format: cell-based. An excerpt:
The genotoxic potential of AZD0328 has been evaluated in the Ames test and in the Mouse lymphoma test. AZD0328 was not mutagenic in either of these tests.

Data set [10] concerns rhesus monkeys. Nature of the data set: Intravenous self-administration (reinforcing potential).
Excerpt: The compound was compared with cocaine and saline for its ability to maintain intravenous self-administration in the monkeys under a lever-press induced drug infusion schedule.

Entries after “also recorded” stand apart in the source; their conditions may differ.

Sequence of α7 receptor binding sites (Q05941 23-502): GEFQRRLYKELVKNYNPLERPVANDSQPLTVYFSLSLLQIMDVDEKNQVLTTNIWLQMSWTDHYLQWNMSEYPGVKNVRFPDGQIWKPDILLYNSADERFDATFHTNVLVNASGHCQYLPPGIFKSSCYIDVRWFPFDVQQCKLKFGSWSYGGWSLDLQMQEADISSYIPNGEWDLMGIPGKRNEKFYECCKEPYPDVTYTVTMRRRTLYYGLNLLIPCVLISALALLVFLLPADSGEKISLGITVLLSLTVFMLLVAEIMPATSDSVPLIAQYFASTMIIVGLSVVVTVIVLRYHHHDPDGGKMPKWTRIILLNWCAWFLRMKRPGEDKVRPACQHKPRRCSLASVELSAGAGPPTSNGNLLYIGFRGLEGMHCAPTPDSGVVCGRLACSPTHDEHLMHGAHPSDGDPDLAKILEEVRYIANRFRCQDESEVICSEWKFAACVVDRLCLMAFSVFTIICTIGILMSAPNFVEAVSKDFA

As for `c1cnc2c(c1)C[C@@]1(CN3CCC1CC3)O2` [AZD0328, (R)-Spiro[1-azabicyclo[2.2.2]octane-3,2′(3′H)-furo[2,3-b]pyridine]], the “Active dose, [125I]-α-bungarotoxin binding ex vivo increased receptor number” value in [1] came out at 0.1 µg/kg. Further, the “Concentration with significant prolongation of APD50, APD70 and APD90” value in data set [2] is not below 5.6 µM. Besides, in [3], the “NOAEL in the proarrhythmic isolated heart assay” value turned out to be 0.9 µM. Also, the “NOAEL for proarrhythmic signals” value in data set [3] (isolated perfused rabbit heart) came out at 3 μm. Besides, in data set [4], the “Dose up to which nicotine-like stimulus properties were lacking” value was “properties at doses up to 5.4 mg/kg”. Besides, the Cmax in data set [5] is not above 31.2 µM. The “Dose with no CV effect” value in data set [6] (Wistar rat, oral gavage) turned out to be 1.1 mg/kg. In addition, the “Increase in blood pressure and heart rate” value in data set [6] (conscious telemetered rat, oral) is more than 10%. Besides, the “Locomotor activity or body temperature” value in data set [6] (rat, oral, any dose) is reported as “μM. No effect on locomotor”. This molecule also returned an HR increase in data set [6] (telemetered Wistar rat, oral gavage, highest dose (total Cmax 31.2 μM)) of 19%. In addition, the Emetic responses result in data set [7] (oral gavage 5.6, 16.9 or 56.2 mg/kg) was “retching, vomiting and wet-dog shakes at all doses”. For the same molecule, in [7] (single oral dose), the “Dose with statistically significant retches vs vehicle” value came to 5.6 mg/kg. Also, the “Absorbed (urinary radioactivity and AUC, oral versus iv)” value in data set [8] (female rat) was determined as 95%. Also, the “Absorbed (urinary radioactivity and AUC, oral versus iv)” value in [8] (male rat) is reported as 97%. Besides, in data set [8] (rat), the “Radioactivity recovered in feces” value was approximately 8% and the “Radioactivity recovered in urine” value was “approximately 85%”. In data set [9], the Mutagenicity / genotoxicity entry is “not genotoxic; also recorded: not mutagenic”. The “iv bolus dose after which one monkey died within minutes” value in [10] (initial dose-finding study) was “receiving 34.8 mg/kg as iv bolus”. Moreover, the Reinforcing effect result in [10] (rhesus monkey, iv infusion 0.384, 1.15 and 3.84 mg/kg/infusion) is “did not display reinforcing properties; also recorded: No reinforcing effect seen at any”. Also, the Self-administration level in data set [10] (rhesus monkey, not greater than saline) is on record as 0.2-1.7 infusions per session.

(Values after patent US20100168146A1, “Composition Comprising (R)-Spiro[L-Azabicyclo[2.2.2]Octane-3,2'(3'H)-Furo[2,3-B]Pyridine (AZD0328) and its Use in the Treatment of Alzheimer's Disease, ADHD or Cognitive Dysfunction” (priority 2008, published 2010).)
